Columns and labels:
Huh-7 cytotoxicity assay = format: cell-based; conditions: human, Huh7 cells
Method: Compounds were tested in a high-throughput 384-well assay format for cytotoxicity in Huh7 cells (Hepatocarcinoma cell line). Cells were diluted in media (DMEM (15-018-CM), 10% FBS, 1% NEAA, 1% PSG) to 16.6K cells/mL and plated at 90 uL/well into 384 well poly-D-lysine coated assay plates and placed in an incubator at 37° C. and 5% CO2. Compounds were serially diluted (1:3) in 100% DMSO in 384-well plates in quadruplicate. DMSO and 2 mM Puromycin were included as negative and positive controls respectively. 24 hours after cell plating, a 384 channel pipettor was used to transfer 0.4 uL from the compound plate to the assay plate. Assay plates were returned to the incubator. After 5 days, assay plates were washed with 80 uL/well of PBS before addition of 20 μL of Cell Titer Glo. Assay plates were read on the Envision plate reader. […] CC50 values were calculated in Accord (on-line tool) using a one-site dose-response model to generate sigmoidal curve fits.

HRVc15 replicon = test: HRVc15 HeLa replicon EC50; format: cell-based, human rhinovirus; conditions: for EC50: Human rhinovirus sp., HRV15, HRVc15 replicon in H1-HeLa cells, 48 hrs, luciferase, read-out: HRV15 Rep EC50
Method: First, HRV replicon RNA is prepared. 5 μg of DNA Template (HRVc15 or HRVc25) is linearized with 2 μL of MluI enzyme in NEB buffer-3 in a final volume of 25 μL for 3 hours at 37° C. Following incubation, linearized DNA is purified on a PCR purification column and the following in vitro transcription is performed using the following conditions: 10 μL of RiboMAX Express T7 2× buffer, 1-8 μL of linear DNA template (1 μg), 0-7 μL nuclease free water, 2 μL enzyme mix T7 express. The final volume of 20 μL is mixed and incubated at 37° C. for 30 min. Following incubation, 1 μL of RQ1 RNase free DNase is added and the mixture is incubated at 37° C. for 15 min. The resulting RNA is then purified with the MegaClear Kit (Gibco Life Technologies Cat #11835-030) and is eluted two times with 50 μL of elution buffer at 95° C. H1-HeLa cells cultured in complete RPMI 1640 media containing 10% heat-inactivated FBS and 1% Penicillin/Streptomycin are seeded into T-225 flasks at a concentration of 2E6 cells/flask a day prior to transfection and are incubated at 37° C./5% CO2 overnight. On the day of transfection, cells are trypsinized following standard cell culture protocols and are washed two times with PBS. Following washes, cells are resuspended at a concentration of 1E7 cells/mL in PBS and the suspension is stored on wet ice. Electroporation is used to introduce replicon RNA into the H1-HeLa cells. A final volume of 10 μL containing 10 μg of replicon c15 or 1 μg of c25 replicon RNA, respectively, are pipetted into a 4 mm electroporation cuvette. The H1-HeLa cell stock is mixed by gently swirling and 0.5 mL of the cell stock previously prepared is transferred into the cuvette containing the replicon RNA. The combined solution is flicked to mix. Following mixing, cells are immediately electroporated using the following settings: 900V, 25 uF, infinite resistance, 1 pulse. Cuvettes are rested on ice for 10 min. Following the 10 min incubation, add 19 mL of ambient temperature, phenol red-free and antibiotic-free RPMI 1640 containing 10% heat-inactivated FBS per electroporation. 150 μL (4E4 cells) of the electroporated cell suspension are seeded per well into a 96 well clear-bottom, white cell culture plate, and are incubated at 25° C. for 30 min. […] Replicon activity is then measured by a Renilla-Glo Luciferase Assay system. Prior to signal quantification, plates are removed from incubators and are allowed to equilibrate to 25° C. after 50 uL is removed from each well. […] Plates are then incubated for 20 min at 25° C. under gentle agitation and luciferase signal are determined with a 0.1 second detection setting using an EnVision luciferase quantification reader.

PRPT cytotoxicity assay = format: cell-based; conditions: human, primary renal proximal tubule epithelial cells (PRPTEC); 5-day incubation
Method: The PRPT cytotoxicity assays on the compound of Formula I and compounds 1, 2 and 6 were conducted using the following protocol.
Cryopreserved human primary renal proximal tubule epithelial cells (PRPTEC), were obtained from LifeLine Cell Technology (Frederick, MD, Cat #FC-0013) and isolated from the tissue of human kidney. The cells were cultured with RenaLife completed medium (LifeLine, Frederick, MD, Cat #LL-0025) in T75 flask for 3 to 4 days from cryopreserved vial, before the cells were seeded to assay plates after 90% confluence. PRPTEC cells were plated at a density of 5×10^3 cells per well in collagen coated 96-well plate with a final volume of […] per well. On next day, the compound was added to cell plates directly using HP D300 Dispenser (Hewlett-Packard, Palo Alto, CA) with program starting at 200 fold lower than the compound stock concentration, and 1:3 fold dilution in duplicates with constant amount of DMSO equal to 0.5%. After 5-day incubation, culture medium was removed, cell viability was measured by addition of […] per well of CellTiter Glo viability reagent (Promega, Madison, WI, Cat #G7573) and the luminescence signal was quantified on a Luminescence plate reader (Perkin-Elmer, Waltham, MA).

DENV2 replicon = test: DENV-2 Huh-7 Rep EC50; format: cell-based, dengue virus; conditions: for EC50: Dengue virus, Huh-7 cells containing DENV2 replicon, 48 hours, read-out: DENV Huh7 REP EC50
Method: In 384 well plates (Greiner, Cat #781091), compounds were acoustically transferred at 200 nl per well in a 8 compound (4 replicates) or 40 compound dose response format (3 replicates). For all plates tested, Balapiravir, GS-5734 and NITD008 were included as positive inhibition controls alongside 0% inhibition, DMSO-only negative control wells. Following compound addition, Huh-7 cells containing the DENV2 replicon construct were harvested following standard cell culture procedures and were adjusted to a concentration of 1.25E5 cells/mL in cell culture media composed of cDMEM without genticin. 40 μL of the cell stock was then added to each well for a final cell density of 5,000 cells/well. Cell and compound mixtures were incubated at 37° C./5% CO2 for 48 hours. Prior to harvesting cells, EnduRen Live Cell Substrate (Promega, Cat #E6481) was prepared by suspending 3.4 mg into 100 uL of DMSO to generate a 60 mM stock solution. The stock solution was then diluted 1:200 in pre-warmed cDMEM and 10 uL of this diluted solution was added to each well of the 384 well plates. Plates were then centrifuged at 500 rpm briefly and were placed on a plate shaker for 2 min. Following mixing, plates were incubated at […] for 1.5 hours prior to measuring luminescence on an Envision luminometer.

Row | SMILES | CC50 at 5 days (Huh-7 cytotoxicity assay) | EC50 (HRVc15 replicon) | CC50 at 5 days (PRPT cytotoxicity assay) | EC50 (DENV2 replicon) | times more potent compared to compound 2, HRV15 Rep (HRVc15 replicon; EC50 ratio vs compound 2) | times more potent than compound 1, DENV huh7 Rep (DENV2 replicon; EC50 ratio vs compound 1) | times more potent compared to compound 2, DENV huh7 Rep (DENV2 replicon; EC50 ratio vs compound 2)
1 | CCC(CC)COC(=O)[C@H](C)N[P@](=O)(OC[C@@]1(C#N)O[C@@H](c2ccc3c(N)ncnn23)[C@H](O)[C@@H]1O)Oc1ccccc1 [Compound 6, 2-ethylbutyl ((S)-(((2R,3S,4R,5S)-5-(4-aminopyrrolo[2,1-f][1,2,4]triazin-7-yl)-2-cyano-3,4-dihydroxytetrahydrofuran-2-yl)methoxy)(phenoxy)phosphoryl)alaninate] | 17.2 µM | 0.017 µM | 42.3 µM | – | – | – | –
2 | CCOC(=O)[C@H](C)NP(=O)(OC[C@@]1(C#N)O[C@@H](c2ccc3c(N)ncnn23)[C@H](O)[C@@H]1O)Oc1ccccc1 (stereo partly shown) [Compound 1, reference compound] | > 44.4 µM | – | – | 73.4 µM | – | – | –
3 | CCC(CC)COC(=O)[C@H](C)NP(=O)(OC[C@@]1(C#N)O[C@@H](c2ccc3c(N)ncnn23)[C@H](O)[C@@H]1O)Oc1ccccc1 (stereo partly shown) [Compound 2, reference compound] | > 44.4 µM | 0.021 µM | 23.8 µM | 5.54 µM | – | – | –
4 | C[C@H](N[P@](=O)(OC[C@@]1(C#N)O[C@@H](c2ccc3c(N)ncnn23)[C@H](O)[C@@H]1O)Oc1ccccc1)C(=O)OC1CCCCC1 [Formula I, cyclohexyl ((S)-(((2R,3S,4R,5S)-5-(4-aminopyrrolo[2,1-f][1,2,4]triazin-7-yl)-2-cyano-3,4-dihydroxytetrahydrofuran-2-yl)methoxy)(phenoxy)phosphoryl)-L-alaninate] | > 88.9 µM | 0.009 µM | > 84.4 µM | 2.94 µM | about 2.3 times | about 25.0 times | about 1.9 times

Source: patent publication US20250034186A1, “ANTIVIRAL COMPOUNDS” (priority 2020, published 2025)
